In article PMC8006714 (Chemical Communications (Cambridge, England), 2021):
Where “and” joins values, the source holds several entries; their conditions need not be identical. Identical values can stand only once. Entries after “also recorded” stand apart in the source; their conditions may differ. Like-named read-outs stand apart in the source and are kept apart here.

Legend:
SARS-CoV-2 M^pro [1] = target: T1, SARS-CoV-2 M^pro (Severe acute respiratory syndrome coronavirus 2, UniProt P0DTD1); format: binding; conditions: for covalent modification of M^pro preincubated with N3 (active site selectivity): 1 μM M^pro preincubated with 3 μM N3, 20 μM inhibitor; for covalent modification of M^pro (protein observed SPE-MS): 20 μM inhibitor, 20 mM HEPES pH 7.5, 50 mM NaCl; for covalent reaction with M^pro (protein observed SPE-MS): 1 µM Mpro, 100 fold excess of β-lactam, 25 min to 24 h
SARS-CoV-2 M^pro [2] = target: T1, SARS-CoV-2 M^pro; assay: biochemical; format: biochemical
SARS-CoV-2 M^pro [3] = target: T1, SARS-CoV-2 M^pro; assay: biochemical; format: biochemical; conditions: for M^pro inhibition at single concentrations (in words): 20, 50 and 100 µM β-lactam, 30 min or 60 min preincubation (Fig. S17); for inhibition at a fixed 20 μM inhibitor concentration: LOPAC and API library screens
M^pro = test system: M^pro; design: method as in doi:10.1101/2020.05.28.120642; conditions: read-out: reported IC50; cited from earlier work
[4] = 30 min preincubation, SPE-MS dose response
[5] = 60 min preincubation, SPE-MS dose response

SMILES | covalent modification of M^pro preincubated with N3 (active site selectivity) (SARS-CoV-2 M^pro [1]) | covalent modification of M^pro (protein observed SPE-MS) (SARS-CoV-2 M^pro [1]; 1 μM M^pro) | % Mpro inhibition at 20 µM (SARS-CoV-2 M^pro [3]) [%] | covalent reaction with M^pro (protein observed SPE-MS) (SARS-CoV-2 M^pro [1]) | further results
COC1(NC(=O)Cc2ccccc2)C(=O)N2C1[S+]([O-])C(C)(C)C2C(=O)OCc1ccc([N+](=O)[O-])cc1 (stereo not shown) [Compound 2, C6-methoxy penicillin G sulfoxide C3 p-nitrobenzyl ester] | Minor further modification | does not efficiently modify M^pro through covalent reaction |  |  | extent of covalent modification of M^pro (SARS-CoV-2 M^pro [1]; 1 μM M^pro, 20 μM β-lactam): < 10%; Hill slope (SARS-CoV-2 M^pro [2]; [4]): 2.2 ± 0.1; Hill slope (SARS-CoV-2 M^pro [2]; [5]): 2.1 ± 0.1; IC50 (SARS-CoV-2 M^pro [2]; IC50 (SPE-MS)): ~3500 nM and 3500 nM and 2100 nM; M^pro inhibition at single concentrations (in words) (SARS-CoV-2 M^pro [3]): moderate inhibition
Cc1cc(C(=O)N[C@@H](C)C(=O)N[C@H](C(=O)N[C@@H](CC(C)C)C(=O)N[C@H](/C=C/C(=O)OCc2ccccc2)C[C@@H]2CCNC2=O)C(C)C)no1 [Compound N3] | one major binding event | modifies M^pro in a covalent manner; also recorded: more than one reaction with the Mpro monomer; also recorded: predominantly (but not exclusively) a single N3 adduct was observed |  |  | IC50 (SARS-CoV-2 M^pro [2]; IC50 (SPE-MS)): 40 nM and 30 nM
O=C1C(SCCO)=C(SCCO)C(=O)c2ccccc21 [NSC 95397] | does not selectively bind to the M pro active site | reacts with Mpro at multiple positions | 99.0 |  | 
Oc1ccc2ccccc2c1SSc1c(O)ccc2ccccc12 [IPA-3, 1,1’-Disulfanediyldinaphthalen-2-ol] | multiple adducts observed with unmodified M^pro were diminished; also recorded: does not (at least substantially) covalently modify Mpro | reacts with Mpro at multiple positions |  |  | IC50 (SARS-CoV-2 M^pro [2]; IC50 (SPE-MS)): ~100 nM and 70 nM; inhibition at a fixed 20 μM inhibitor concentration (SARS-CoV-2 M^pro [3]): ≥ 80%; inhibition at 20 µM (SARS-CoV-2 M^pro [3]; read-out: % Mpro inhibition at 20 µM): 99.1%
Cc1ccc(S(=O)(=O)/C=C/C#N)cc1 [BAY 11-7082] | multiple adducts observed with unmodified M^pro were diminished; also recorded: to a lesser extent compared to active site free M pro | reacts with Mpro at multiple position | 92.0 |  | 
CC1(C)[C@H](C(=O)OCc2ccccc2)N2C(=O)[C@@H](NC(=O)COc3ccccc3)[C@H]2S1(=O)=O [Compound 1, penicillin V sulfone C3 benzyl ester] | no reaction | A single molecule 1 covalently modifies M^pro; also recorded: Covalent modification was observed |  |  | Hill slope (SARS-CoV-2 M^pro [2]; [4]): 1.4 ± 0.4; Hill slope (SARS-CoV-2 M^pro [2]; [5]): 1.6 ± 0.2; IC50 (SARS-CoV-2 M^pro [2]; IC50 (SPE-MS)): ~1500 nM and 1500 nM and 900 nM; M^pro inhibition at single concentrations (in words) (SARS-CoV-2 M^pro [3]): moderate inhibition
CO[C@@]1(NC(=O)C(C(=O)O)c2ccc(O)cc2)C(=O)N2C(C(=O)O)=C(CSc3nnnn3C)CO[C@@H]21 (stereo partly shown) [moxalactam] |  |  |  | (partial) inhibitor fragmentation was observed | 
CCN1CCN(C(=O)N[C@@H](C(=O)N[C@]2(OC)C(=O)N3C(C(=O)O)=C(CSc4nnnn4C)CS[C@@H]32)[C@H](C)O)C(=O)C1=O [cefbuperazone] |  |  |  | evidence for more than one reaction was accrued | 
O=c1c2ccccc2[se]n1-c1ccccc1 [Ebselen] |  | covalently reacts multiple times with Mpro |  |  | covalent modification of M^pro (protein observed SPE-MS) (SARS-CoV-2 M^pro [1]; 1 μM M^pro, listed as ebselen): modifies M^pro in a covalent manner; also recorded: time dependent modification of multiple residues; inhibition at 20 µM (SARS-CoV-2 M^pro [3]; read-out: % Mpro inhibition at 20 µM, library of FDA-approved small molecules, 20 µM compound, […] Mpro, 2.0 µM TSAVLQ/SGFRK-NH2): 99.1%
O=C(O)[C@H]1/C(=C/CO)O[C@@H]2CC(=O)N21 [clavulanate] |  |  |  | (partial) inhibitor fragmentation was observed | 
[Cl-].[Cl-].[Zn+2] [ZnCl2] |  |  |  |  | Hill slope (SARS-CoV-2 M^pro [2]): 2.23 and 2.07; IC50 (SARS-CoV-2 M^pro [2]; read-out: IC50): 340 nM and 370 nM
CO[C@@]1(NC(=O)Cc2cccs2)C(=O)N2C(C(=O)O)=C(COC(N)=O)CS[C@@H]21 [cefoxitin] |  |  |  | evidence for more than one reaction was accrued | 
CO[C@@]1(NC(=O)C2SC(=C(C(N)=O)C(=O)O)S2)C(=O)N2C(C(=O)O)=C(CSc3nnnn3C)CS[C@@H]21 (stereo partly shown) [cefotetan] |  |  |  | evidence for more than one reaction was accrued | 
CC(=O)OC[C@H]1O[C@@H]([S-])[C@H](OC(C)=O)[C@@H](OC(C)=O)[C@@H]1OC(C)=O.CCP(CC)CC.[Au+] [Auranofin] |  |  | 100.0 |  | IC50 (M^pro): ~500 nM; inhibition at a fixed 20 μM inhibitor concentration (SARS-CoV-2 M^pro [3]): ≥ 80%
Cc1ccc(S(=O)(=O)N[C@@H](CCCCN)C(=O)CCl)cc1.Cl [TLCK, Nα-p-Toluenesulfonyl-L-lysine chloromethyl ketone hydrochloride] | does not react with TLCK | covalently reacts with M pro | 88.3 |  | covalent modification of M^pro preincubated with N3 (active site selectivity) (SARS-CoV-2 M^pro [1]; listed as Nα-p-toluenesulfonyl-L-lysine chloromethyl ketone): substantial covalent modification was no longer observed
C[C@]1(Cn2ccnn2)[C@H](C(=O)O)N2C(=O)C[C@H]2S1(=O)=O [tazobactam] |  |  |  | increased over time | 
CC(=O)OCC1=C(C(=O)[O-])N2C(=O)[C@@H](NC(=O)CCC[C@@H](N)C(=O)[O-])[C@H]2SC1.[Zn+2] [Cephalosporin C zinc salt] |  |  | 92.3 |  | Hill slope (SARS-CoV-2 M^pro [2]; 22 minutes preincubation, SPE-MS): 1.83; M^pro inhibition (in words) (SARS-CoV-2 M^pro [3]): inhibited
Cc1ccc(S(=O)(=O)N[C@@H](Cc2ccccc2)C(=O)CCl)cc1 [TPCK, N-p-Toluenesulfonyl-L-phenylalanine chloromethyl ketone] | does not covalently modify M^pro in the presence of N3; also recorded: substantial covalent modification was no longer observed; also recorded: does not react with TPCK | modifies M^pro in a covalent manner; also recorded: covalently reacts with Mpro | 94.1 |  | IC50 (SARS-CoV-2 M^pro [2]; pH 7.5, read-out: IC50 (SPE-MS)): ~800 nM and 830 nM
